In ChEMBL document CHEMBL1255488, “Semimechanistic pharmacokinetic-pharmacodynamic model with adaptation development for time-kill experiments of ciprofloxacin against Pseudomonas aeruginosa” (2010):
≈ marks a conversion by molar mass, not a printed value.

What was measured:
Pseudomonas aeruginosa [1] = test: Antimicrobial activity against Pseudomonas aeruginosa PAO1 by microdilution method in presence of 40 ug/ml efflux-pump inhibitor PAbetaN
Pseudomonas aeruginosa [2] = test: Antimicrobial activity against Pseudomonas aeruginosa PAO7H by microdilution method
Pseudomonas aeruginosa [3] = test: Antimicrobial activity against Pseudomonas aeruginosa PAO7H by microdilution method in presence of 40 ug/ml efflux-pump inhibitor PAbetaN
Pseudomonas aeruginosa [4] = test: microbe, parasite or virus in culture; settings: PAO1
Pseudomonas aeruginosa [5] = test: microbe, parasite or virus in culture; settings: PAO1; remark: listed apart in the source
Description: Antimicrobial activity against 0.12 ug/ml compound pre-treated Pseudomonas aeruginosa PAO1 in presence of 0.25 ug/ml of compound during plating experiment by microdilution method

Pseudomonas aeruginosa [6] = test: microbe, parasite or virus in culture; settings: PAO1; remark: listed apart in the source
Description: Antimicrobial activity against 0.12 ug/ml compound pre-treated Pseudomonas aeruginosa PAO1 in presence of 0.25 ug/ml of compound during plating experiment by microdilution method in presence of 40 ug/ml efflux-pump inhibitor PAbetaN

Pseudomonas aeruginosa [7] = test: microbe, parasite or virus in culture; settings: PAO1; remark: listed apart in the source
Description: Antimicrobial activity against 0.12 ug/ml compound pre-treated Pseudomonas aeruginosa PAO1 by microdilution method

Pseudomonas aeruginosa [8] = test: microbe, parasite or virus in culture; settings: PAO1; remark: listed apart in the source
Description: Antimicrobial activity against 0.12 ug/ml compound pre-treated Pseudomonas aeruginosa PAO1 by microdilution method in presence of 40 ug/ml efflux-pump inhibitor PAbetaN

Pseudomonas aeruginosa [9] = test: microbe, parasite or virus in culture; settings: PAO1; remark: listed apart in the source
Description: Antimicrobial activity against 0.12 ug/ml compound pre-treated Pseudomonas aeruginosa PAO1 in presence of 0.5 ug/ml of compound during plating experiment by microdilution method in presence of 40 ug/ml efflux-pump inhibitor PAbetaN

Pseudomonas aeruginosa [10] = test: microbe, parasite or virus in culture; settings: PAO1; remark: listed apart in the source
Description: Antimicrobial activity against 0.12 ug/ml compound pre-treated Pseudomonas aeruginosa PAO1 in presence of 1 ug/ml of compound during plating experiment by microdilution method in presence of 40 ug/ml efflux-pump inhibitor PAbetaN

Pseudomonas aeruginosa [11] = test: microbe, parasite or virus in culture; settings: PAO1; remark: listed apart in the source
Description: Antimicrobial activity against 0.12 ug/ml compound pre-treated Pseudomonas aeruginosa PAO1 in presence of 2 ug/ml of compound during plating experiment by microdilution method in presence of 40 ug/ml efflux-pump inhibitor PAbetaN

Pseudomonas aeruginosa [12] = test: microbe, parasite or virus in culture; settings: PAO1; remark: listed apart in the source
Description: Antimicrobial activity against 0.25 ug/ml compound pre-treated Pseudomonas aeruginosa PAO1 by microdilution method

Pseudomonas aeruginosa [13] = test: microbe, parasite or virus in culture; settings: PAO1; remark: listed apart in the source
Description: Antimicrobial activity against 0.25 ug/ml compound pre-treated Pseudomonas aeruginosa PAO1 in presence of 0.25 ug/ml of compound during plating experiment by microdilution method

Pseudomonas aeruginosa [14] = test: microbe, parasite or virus in culture; settings: PAO1; remark: listed apart in the source
Description: Antimicrobial activity against 0.25 ug/ml compound pre-treated Pseudomonas aeruginosa PAO1 in presence of 0.25 ug/ml of compound during plating experiment by microdilution method in presence of 40 ug/ml efflux-pump inhibitor PAbetaN

Pseudomonas aeruginosa [15] = test: microbe, parasite or virus in culture; settings: PAO1; remark: listed apart in the source
Description: Antimicrobial activity against 0.25 ug/ml compound pre-treated Pseudomonas aeruginosa PAO1 in presence of 0.5 ug/ml of compound during plating experiment by microdilution method

Pseudomonas aeruginosa [16] = test: microbe, parasite or virus in culture; settings: PAO1; remark: listed apart in the source
Description: Antimicrobial activity against 0.25 ug/ml compound pre-treated Pseudomonas aeruginosa PAO1 in presence of 0.5 ug/ml of compound during plating experiment by microdilution method in presence of 40 ug/ml efflux-pump inhibitor PAbetaN

Pseudomonas aeruginosa [17] = test: microbe, parasite or virus in culture; settings: PAO1; remark: listed apart in the source
Description: Antimicrobial activity against 0.25 ug/ml compound pre-treated Pseudomonas aeruginosa PAO1 in presence of 1 ug/ml of compound during plating experiment by microdilution method

Pseudomonas aeruginosa [18] = test: microbe, parasite or virus in culture; settings: PAO1; remark: listed apart in the source
Description: Antimicrobial activity against 0.25 ug/ml compound pre-treated Pseudomonas aeruginosa PAO1 in presence of 1 ug/ml of compound during plating experiment by microdilution method in presence of 40 ug/ml efflux-pump inhibitor PAbetaN

In the case of `O=C(O)c1cn(C2CC2)c2cc(N3CCNCC3)c(F)cc2c1=O` [CIPROFLOXACIN], the MIC (Pseudomonas aeruginosa [1]) is reported as 0.06 µg/mL, the MIC (Pseudomonas aeruginosa [2]) is reported as 1 µg/mL (≈ 3.02 µM) and the MIC (Pseudomonas aeruginosa [3]) is reported as 0.06 µg/mL. It also gave an MIC (Pseudomonas aeruginosa [4]) of 0.06 µg/mL (≈ 0.181 µM), an MIC (Pseudomonas aeruginosa [5]) of 1 µg/mL (≈ 3.02 µM) and an MIC (Pseudomonas aeruginosa [6]) of 0.12 µg/mL (≈ 0.362 µM). The MIC (Pseudomonas aeruginosa [7]) was 1 µg/mL (≈ 3.02 µM), the MIC (Pseudomonas aeruginosa [8]) was 0.06 µg/mL (≈ 0.181 µM) and the MIC (Pseudomonas aeruginosa [9]) was 0.12 µg/mL (≈ 0.362 µM). For the same compound, the MIC (Pseudomonas aeruginosa [10]) was 0.12 µg/mL (≈ 0.362 µM), the MIC (Pseudomonas aeruginosa [11]) was 0.12 µg/mL (≈ 0.362 µM) and the MIC (Pseudomonas aeruginosa [12]) was 1 µg/mL (≈ 3.02 µM). The MIC (Pseudomonas aeruginosa [13]) was 1 µg/mL (≈ 3.02 µM), the MIC (Pseudomonas aeruginosa [14]) was 0.12 µg/mL (≈ 0.362 µM) and the MIC (Pseudomonas aeruginosa [15]) was 1 µg/mL (≈ 3.02 µM). It also gave an MIC (Pseudomonas aeruginosa [16]) of 0.12 µg/mL (≈ 0.362 µM), an MIC (Pseudomonas aeruginosa [17]) of 1 µg/mL (≈ 3.02 µM) and an MIC (Pseudomonas aeruginosa [18]) of 0.12 µg/mL (≈ 0.362 µM).
